pIC50: −log10 of the molar value. Like-named read-outs stand apart in the source and are kept apart here.
System: HCV replicon RNA in human hepatoma Huh7 cells (cell line 2209-23)
Experiment: HCV Replicon assay (Renilla luciferase reporter, 2209-23 cells)
Type: cell-based, Hepatitis C virus
Details: for pIC50: Hepatitis C virus, Huh-7, 72 h, read-out: IC50 (HCV Replicon assay)

SMILES: Nc1ccn([C@@H]2O[C@H](CO)[C@@H](O)[C@H]2F)c(=O)n1 [2′-Deoxy-2′-fluorocytidine]
- pIC50 (Renilla luciferase HCV replicon cells 2209-23, three days incubation): 6.13

SMILES: Nc1nc2c(ncn2[C@@H]2O[C@H](CO)[C@@H](O)[C@H]2F)c(=O)[nH]1 [2′-Deoxy-2′-fluoroguanosine]
- % reduction of replicon level at fixed concentration (@ 20 μM, Renilla luciferase HCV replicon cells 2209-23): 62% @ 20

SMILES: Nc1nc(N)c2ncn([C@@H]3O[C@H](CO)[C@@H](O)[C@H]3F)c2n1 [9-(2-Deoxy-2-fluoro-β-D-ribofuranosyl)-2,6-diaminopurine]
- pIC50: 5.00

Source: patent US6660721B2, “Anti-HCV nucleoside derivatives” (Hoffmann-la Roche Inc., priority 2001, dated 2003)
